This is an account of results in PubChem BioAssay (NCI).

Some test systems named below: RXF 393 renal; MCF7 breast; OVCAR-4 ovarian; SK-MEL-5 melanoma; HOP-62 NSCLC; SNB-19 CNS; MDA-MB-231 breast; UACC-62 melanoma; EKVX NSCLC; BT-549 breast.
Holding throughout (assay): growth of human tumour cells (NCI), 48 h

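Method: 48-hour compound exposure of cells in 96-well plates, five concentrations, linear interpolation of endpoints. Abbreviation: GI50, concentration required for 50% inhibition of growth. TGI marks complete inhibition of growth.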

Regarding `CC(=O)c1c[nH]c2ccc(-c3ccnc(Nc4ccc(NC(=O)C5CCCC5)c(CN5CCOCC5)c4)n3)cc12`, the GI50 in the assay with RXF 393 renal is 11.4 nM; with MCF7 breast, 30.4 nM; with OVCAR-4 ovarian, 45.3 nM; in the assay on SK-MEL-5 melanoma it was 24.6 nM; in the assay on HOP-62 NSCLC it was 40.3 nM; in the assay on SNB-19 CNS it was 41 nM. The GI50 is 31.5 nM in the assay with MDA-MB-231 breast, 20.5 nM in the assay on UACC-62 melanoma, 38.2 nM in the assay with EKVX NSCLC and 32.8 nM with BT-549 breast. The TGI in the assay on RXF 393 renal was 36 nM; in the assay on MCF7 breast, 174 nM; in the assay on OVCAR-4 ovarian it was 573 nM; in the assay on SK-MEL-5 melanoma, 68.5 nM; in the assay on HOP-62 NSCLC, 3520 nM; in the assay on SNB-19 CNS, 7960 nM. Besides, the TGI in the assay on MDA-MB-231 breast turned out to be 294 nM; with UACC-62 melanoma, 48.1 nM; in the assay with EKVX NSCLC, 457 nM; in the assay on BT-549 breast, 904 nM.
